Laboratory results published in patent publication US8092790B2, “Methods of making formulations to affect insect behavior and/or bird behavior” (Bug Buster, Ltd., priority 2003, dated 2012).

What was measured:
[1] = 25° C.; cited from earlier work
[2] = test system: bees (Panurgus banksianus, P. calacaratus); conditions: in vivo; cited from earlier work
mosquito = conditions: in vivo; cited from earlier work
bees (Apidae, Psithyrus) = conditions: in vivo; cited from earlier work
[3] = test system: Deraeocoris brevis (Uhler); conditions: on sticky cards; cited from earlier work
[4] = test system: Orius tristicolor (White); conditions: on sticky cards; cited from earlier work
[5] = test system: seed weevil (Smicronyx spp.); assay: Comparison to 24% DEET on sunflower seed heads; type: in vivo; conditions: composition with 0.006% methyl anthranilate; DEET as 24% solution
Text: An exemplary composition was compared to N,N-Diethyl-m-toluamide (DEET). The exemplary composition included an exemplary compound, methyl anthranilate (e.g., BIRDSHIELD™ at 0.006% methyl anthranilate), and an insecticide, esfenvalerate (e.g., ASANA™). A 24% DEET solution is often used in a standard evaluation process by entomologists for evaluating seed weevil (Smicronyx spp.) infestations.

[6] = test system: mosquito (Aedes aegyptis); assay: Mosquito repellency on human subject; type: in vivo; conditions: second trial; methyl anthranilate 0.00312%, DEET 0.24%; untreated head covered within one minute
Text: In these trials, DEET was provided in the commercially available product DEEP WOODS OFF™ repellent (S.C. Johnson & Son, Inc., Racine, Wis.), which has approximately 28.5% active ingredient; 1.5% other isomers and 70% inert ingredients.
In a first trial, a human subject was exposed to a mosquito (Aedes aegyptis) rich environment without application of the exemplary compound or DEET. Within less than one minute the subject was covered with the insects. In a second trial, the subject sprayed one unclothed arm with the exemplary compound at a rate of 0.00312% and the other unclothed arm with DEET at a concentration of 0.24%. The subject's head remained untreated. Upon returning to the test area, the subject's head was covered with the insects within one minute. […] In a third trial the subject, after removing the DEET from his/her body, reapplied the exemplary compound to unclothed arms, head and neck before returning to the test area. The subject returned to and remained in the test area for more than one hour without any of the insects landing on his/her arms, hands and head while numerous insects were observed on the clothed portions of his/her anatomy.

[7] = test system: sunflower seed weevils (Smicronyx spp.); assay: Comparison to DEET product, drawing weevils out of sunflower heads; type: in vivo
Text: DEET is often used by entomologists in standard procedures to draw sunflower seed weevils (Smicronyx spp.) out of the heads of sunflowers. In this trial, DEET was provided in the commercially available product DEEP WOODS OFF™ repellent (S.C. Johnson and Son's, Racine, Wis.), which has approximately 28.5% active ingredient; 1.5% other isomers and 70% inert ingredients. Forty-two flowers were randomly selected from interiors of three fields. One-half of the flowers were sprayed with the DEET containing repellent while the remaining flowers were sprayed with the exemplary compound at a concentration of approximately 0.00312% methyl anthranilate, which was combined with long chained fatty acids. The number of sunflower weevils was recorded.

sand fly = conditions: in vivo; cited from earlier work
house fly = conditions: in vivo; cited from earlier work
Aenictus = conditions: in vivo; cited from earlier work
[8] = test system: green lacewing (Chrysopa nigricornis Bermeister); conditions: in vivo; cited from earlier work
birds = conditions: in vivo; cited from earlier work
bees (Apis mellifera L.) = conditions: in small groups; cited from earlier work

In the case of `CC(C)C(C(=O)OC(C#N)c1cccc(Oc2ccccc2)c1)c1ccc(Cl)cc1` (single isomer, unassigned; (+)) [Esfenvalerate, (+)Alpha-cyano-3-phenoxybenzyl-(+)-alpha-(4-chlorophenyl)isovalerate], the water solubility [1] is listed as less than 0.3 µg/mL.

In the case of `CCCCCCCO` [1-heptanol], the “effect on behavior of bees” value [2] is listed as “affect behavior of bees”.

For `OCCc1ccccc1` [2-phenyl-ethanol], the “effect on behavior of bees” value [2] is listed as “affect behavior of bees”.

In the case of `CCCCCCCCCC(C)OC(C)=O` (centres unmarked) [2-undecyl acetate], the effect on mosquito (mosquito) is given as “mosquito attractant”.

For `CC(C)=CCCC(C)CCO` (centres unmarked) [3,7-dimethyl-6-octen-1-ol], the “effect on behavior of bees” value (bees (Apidae, Psithyrus)) is listed as “act as a territory marker”.

For `CC/C=C/CCOC(C)=O` [(E)-3-hexenyl acetate], the “attraction of Deraeocoris brevis” value [3] is given as “may be attracted” and the “attraction of Orius tristicolor” value [4] is given as “may be attracted”.

In the case of `CCN(CC)C(=O)c1cccc(C)c1` [DEET, N,N-Diethyl-m-toluamide, reference compound], the water solubility [1] is given as “approximately 912 mg/L”, the “insects observed in sprayed sunflower seed heads” value [5] is given as “No insects were observed” and the “mosquitoes on treated unclothed arm” value [6] is given as “No mosquitoes were found”. The “Number of insects, Mean” value ([7]; Field No. 1) was 4.4, the “Number of insects, Total” value ([7]; Field No. 1) was 44 and the “Number of insects, Mean” value ([7]; Field No. 2) was 12. The “Number of insects, Total” value ([7]; Field No. 2) was 37, the “Number of insects, Mean” value ([7]; Field No. 3) was 10.3 and the “Number of insects, Total” value ([7]; Field No. 3) was 86.

In the case of `CC1=CCC(C(C)(C)O)CC1` (stereo not drawn) [alpha-terpineol], the “effect on sand fly” value (sand fly) is given as “sand fly attractant”.

For `CC=CC(C)C(=O)OCC` (centres unmarked) [ethyl ester of 2-methyl-3-pentenoic acid], the “effect on house fly” value (house fly) is listed as “house fly attractant”.

In the case of `CC(C)=CCC/C(C)=C/C=O` [geranial], the “effect on behavior of bees” value [2] is given as “affect behavior of bees”.

For `CC(C)=CCC/C(C)=C/CO` [geraniol, 3,7-dimethyl-2,6-octadien-I-ol], the “effect on behavior of bees” value [2] is listed as “affect behavior of bees”.

In the case of `CC(C)=CCC/C(C)=C/C(=O)O` [geranolic acid], the “effect on behavior of bees” value [2] is given as “affect behavior of bees”.

In the case of `COC(=O)c1cccnc1` [methyl nicotinate], the “semiochemical function for Aenictus” value (Aenictus) is given as “trail semiochemicals”.

In the case of `COC(=O)c1ccccc1O` [methyl salicylate], the “attraction of green lacewing” value [8] is listed as “attract”.

In the case of `CC(C)=CCC/C(C)=C\C=O` [neral], the “effect on behavior of bees” value [2] is given as “affect behavior of bees”.

For `CC(C)=CCC/C(C)=C\CO` [nerol], the “effect on behavior of bees” value [2] is given as “affect behavior of bees”.

For `CC(C)=CCC/C(C)=C\C(=O)O` [nerolicacid], the “effect on behavior of bees” value [2] is listed as “affect behavior of bees”.

For `CC(=O)c1ccccc1N` [o-aminoacetophone, o-aminoacetophenone], the repellency to birds (birds) is given as “exhibit repellency to birds” and the effect on bees (bees (Apis mellifera L.)) is given as “repels bees”.

In the case of bisabolene, the “effect on house fly” value (house fly) is given as “house fly repellent”.
